Marks after values point to notes of the source that are not given here.
Columns and labels:
[1] = tested on: TREM-1/TREM-1 ligand interaction; assay: competition of soluble mouse TREM-1/IgG1 binding to TREM-1 ligand positive peritoneal exudate cells (flow cytometry); conditions: peptides 100 and 500 μM, pre-incubated 45 minutes on ice; 2 μg/ml mouseTREM-1/hIgG1
Procedure: Cytofluorimetric analysis of peritoneal exudate cells with 2 μg/ml of mouseTREM-1/hIgG1 in the presence of a 500 μM solution per mouse (thin line), 100 μM solution per mouse (dotted line) or absence (thick line) of the peptides is shown. The grey histogram represents immunostaining with human IgG1 as a control.
A possible mechanism of action could be the ability of TREM-1 derived peptide to interfere with TREM-1/TREM-1 ligand interaction. To address this question the Inventors performed competition experiments on TREM-1 ligand positive cells: PEC (Peritoneal Exudate Cells) from CLP treated mice.
Peritoneal exudate cells (PEC) from mice suffering from a caecal ligation and puncture (CLP)-induced peritonitis were subjected to flow cytometry analysis after incubation with a PE-conjugated anti-human IgG1 (Jackson Immunoresearch, Bar Harbor, USA). Competition with TREM-1 peptides was performed by pre-incubating cells with the indicated concentrations of peptides for 45 minutes on ice before adding mTREM-1-IgG1.

rats = assay: LPS-induced endotoxinemia in rats, haemodynamic and biological measurements; format: in vivo, rat; conditions: for effect on plasma IL-1β release: LPS 15 mg/kg (FIG. 13B); for Nitrite/nitrate concentrations after LPS administration: LPS 15 mg/kg (FIG. 14); for Aortic blood flow / Heart Rate / Lactate / MAP / Mesenteric blood flow / pH (arterial): LPS-induced endotoxinemia
Procedure: Animals were randomly grouped (n=10-20) and treated with Escherichia coli LPS (0111:B4, Sigma-Aldrich, Lyon, France) i.p. in combination with the TREM-1 or scrambled peptides.
Immediately after LPS administration as well as 16 hours after CLP, arterial BP (systolic, diastolic, and mean), heart rate, abdominal aortic blood flow, and mesenteric blood flow were recorded using a procedure described elsewhere (see Mansart, A. et al. Shock 19:38-44 (2003)). Briefly, the left carotid artery and the left jugular vein were cannulated with PE-50 tubing. Arterial BP was continuously monitored by a pressure transducer and an amplifier-recorder system (IOX EMKA Technologies, Paris, France). Perivascular probes (Transonic Systems, Ithaca, N.Y.) wrapped up the upper abdominal aorta and mesenteric artery, allowed to monitor their respective flows by means of a flowmeter (Transonic Systems). After the last measurement (4th hour during LPS experiments and 24th hour after CLP), animals were sacrificed by an overdose of sodium thiopental i.v.
Blood was sequentially withdrawn from the left carotid artery. Arterial lactate concentrations and blood gases analyses were performed on an automatic blood gas analyser (ABL 735, Radiometer, Copenhagen, Denmark). Concentrations of TNF-α and IL-1β in the plasma were determined by an ELISA test (Biosource, Nivelles, Belgium) according to the recommendations of the manufacturer. Plasmatic concentrations of nitrates/nitrites were measured using the Griess reaction (R&D Systems, Abingdon, UK).

NF-κB p50 and p65 = assay: NF-κB activity in monocytes (ELISA-based assay); format: cell-based, human; conditions: P5 100 ng/mL, 24 hours
Procedure: Monocytes were cultured for 24 hours in the presence of E. coli LPS (O111:B4, 1 μg/mL), anti-TREM-1 mAb (10 μg/mL) and/or P5 (100 ng/mL) as indicated and the levels of NFκB p50 and p65 were determined using an ELISA-based assay. Experiments were performed in triplicate and data are expressed as means of optical densities (SEM).
In order to activate monocytes through TREM-1, an anti-TREM-1 agonist monoclonal antibody (R&D Systems) was added as follows: flat-bottom plates were precoated with 10 μg/mL anti-TREM-1 per well. After thorough washing in phosphate buffered saline (PBS), the monocyte suspensions were added at a similar concentration as above. Some experiments were performed in the presence of protease inhibitors (PMSF and Protease Cocktail Inhibitor; Invitrogen). Cell-free supernatants were assayed for the production of TNF-α and IL-1β by ELISA according to the recommendations of the manufacturer (BD Biosciences, San Diego, USA). To address the effect of P5 on NF-κB activity in monocytes, an ELISA-based assay was performed (BD Mercury™ Transfactor Kit, BD Biosciences). […] Whole-cell extracts were then prepared and levels of NF-κB p50 and p65 were determined according to the recommendations of the manufacturer. All experiments were performed in triplicate and data are expressed as means (SEM). Identification and Quantitation of sTREM-1 Release

| Sequence | inhibition of TREM-1 interaction with its ligand (mTREM-1/IgG1 binding to PEC) [1] | effect on plasma IL-1β release (rats) | Nitrite/nitrate concentrations after LPS administration (rats) | Aortic blood flow (rats; H0) [mL/min] | Heart Rate (rats; H0) [bpm] | Lactate (rats; H0) [mmol/L] | MAP (rats; H0) [mmHg] | Mesenteric blood flow (rats; H0) [mL/min] | pH (arterial) (rats; H0) | Aortic blood flow (rats; H1) | Heart Rate (rats; H1) [bpm] | Lactate (rats; H1) [mmol/L] | MAP (rats; H1) [mmHg] | Mesenteric blood flow (rats; H1) [mL/min] | pH (arterial) (rats; H1) | Aortic blood flow (rats; H2) | Heart Rate (rats; H2) [bpm] | Lactate (rats; H2) [mmol/L] | MAP (rats; H2) [mmHg] | Mesenteric blood flow (rats; H2) [mL/min] | also measured |
| --- | --- | --- | --- | --- | --- | --- | --- | --- | --- | --- | --- | --- | --- | --- | --- | --- | --- | --- | --- | --- | --- |
| LQVTDSGLYRCVIYHPP [P5] | inhibit TREM-1 interaction with its ligand in a dose dependent manner | strongly reduced | remained stable | 48 ± 9 | 474 ± 49 | 3.4 ± 1.5 | 115 ± 16 | 12.8 ± 6.4 | 7.33 ± 0.04 | 32 ± 8 mL/min | 498 ± 26 | 5.4 ± 1.4 | 99 ± 22 | 11.4 ± 2.7 | 7.28 ± 0.06 | 23 ± 4 ^b mL/min | 510 ± 42 | 5.5 ± 1.6 | 101 ± 18 | 9.2 ± 1.9 | attenuation of plasma TNF-α production (rats; LPS 15 mg/kg (FIG. 13A)): ~30%; pH (arterial) (rats; H2): 7.32 ± 0.07; Aortic blood flow (rats; H3): 20 ± 7 ^b mL/min; Heart Rate (rats; H3): 517 ± 62 bpm; Lactate (rats; H3): 5.9 ± 1.7 ^b mmol/L; MAP (rats; H3): 93 ± 21 ^b mmHg; Mesenteric blood flow (rats; H3): 6.0 ± 0.8 mL/min; pH (arterial) (rats; H3): 7.29 ± 0.11; Aortic blood flow (rats; H4): 15 ± 6 ^b mL/min; Heart Rate (rats; H4): 510 ± 26 bpm; Lactate (rats; H4): 7.4 ± 1.8 ^b mmol/L; MAP (rats; H4): 89 ± 10 ^b mmHg; Mesenteric blood flow (rats; H4): 5.0 ± 1.0 mL/min; pH (arterial) (rats; H4): 7.28 ± 0.12 ^b; effect of LPS on NF-κB activation (NF-κB p50 and p65; LPS 1 μg/mL): did not alter; NF-κB activation induced by the engagement of TREM-1 (NF-κB p50 and p65; anti-TREM-1 mAb 10 μg/mL): inhibited |
| LVVTQRPFTRPSEVHMGKFTLKH (listed as Mus musculus) [P1] | inhibit TREM-1 interaction with its ligand in a dose dependent manner | delayed the IL-1β peak until the third hour after LPS injection, but without attenuation | increased rapidly | 49 ± 11 | 464 ± 25 | 2.7 ± 0.1 | 116 ± 10 | 12.0 ± 3.7 | 7.32 ± 0.04 | 39 ± 12 ^a mL/min | 492 ± 26 | 4.9 ± 1.1 | 119 ± 14 | 10.5 ± 1.7 | 7.29 ± 0.04 | 26 ± 14 ^a mL/min | 492 ± 26 | 5.0 ± 0.9 | 113 ± 21 | 7.7 ± 2.7 | effect on LPS-induced plasma TNF-α production (rats; LPS 15 mg/kg (FIG. 13A)): no effect; pH (arterial) (rats; H2): 7.30 ± 0.01; Aortic blood flow (rats; H3): 22 ± 8 ^a mL/min; Heart Rate (rats; H3): 480 ± 30 bpm; Lactate (rats; H3): 5.7 ± 0.7 ^a mmol/L; MAP (rats; H3): 97 ± 29 ^a mmHg; Mesenteric blood flow (rats; H3): 5.0 ± 1.0 mL/min; pH (arterial) (rats; H3): 7.26 ± 0.06; Aortic blood flow (rats; H4): 16 ± 6 ^a mL/min; Heart Rate (rats; H4): 480 ± 20 bpm; Lactate (rats; H4): 7.9 ± 1.7 ^a mmol/L; MAP (rats; H4): 92 ± 7 ^a mmHg; Mesenteric blood flow (rats; H4): 4.8 ± 0.9 mL/min; pH (arterial) (rats; H4): 7.26 ± 0.08 ^a |
